Test results as given in patent publication US20220193185A1, “COMBINATION OF SYNTHETIC PEPTIDES WITH AFFINITY TO THE TGF-ß RECEPTOR AND WITH AFFINITY TO THE IL-10 RECEPTOR, PHARMACEUTICAL COMPOSITION AND THEIR USE AS IMMUNOMODULATORS IN THE TREATMENT OF AUTOIMMUNE, INFLAMMATORY OR ALLERGIC DISEASES” (Universidade Federal de Uberlândia, priority 2019, published 2022).
Bridges are numbered along the chain shown (N, C = ends). Where no end group is shown, it is not given here.

How the values were obtained:
[1] = tested on: TGF-β1 receptor on A549 cells; assay: ELISA on cells of the A549 line using anti-TGF-β1 antibody; type: binding, human
Experimental: The peptides described in this patent application were selected using the Phage Display (PD) methodology. The selection was performed by evaluating the ability of said peptides to recognize the TGF-β1 receptor on A549 cells, using an ELISA assay. MaxiSorp 96-well microtiter plates were coated with 1×10^6 cells diluted in PBS and incubated overnight at 4° C. Cells were blocked with 3% PBS-BSA for 1 h at 37° C., washed once with PBS and incubated with […] of each TGF-β1 mimetic peptide or 5 ng/ml of recombinant TGF-β1 for 1 h at 37° C. After washing, the plate was incubated for 1 h at 37° C. with anti-TGF-β1 antibody. The plate was washed and incubated with HRP-labeled anti-human IgG antibody for 1 h at 37° C. After washing, TMB substrate solution was added to the plate; the reaction was stopped by adding the 2N H2SO4 solution and read at 492 nm in a microplate reader.
To investigate whether the synthesized peptides could bind to cell receptors, an ELISA assay was performed on cells of the A549 line using commercial anti-TGF-β1 antibody.

[2] = tested on: TFGβRII/SMAD-dependent pathway; assay: HEK-blue-TGFβ reporter cells, SEAP production; type: cell-based; conditions: tested at 0.1, 1, 10 and 100 μM; for concentrations with statistically significant activation of the SMAD-dependent pathway (SEAP): 12 hours
Experimental: After 12 hours of stimulation (FIG. 4A), all peptides were able to bind to the receptor.
The assay was performed in such a way that approximately 2.5×10^4 cells/well (100 μL) were treated with 100 μL of all synthetic peptides at different concentrations (100 μM, 10 μM, 1 μM and 0.1 μM) while rTGF-β1 ([…]) at 100 ng/ml was used as a positive control. After incubating the cells for 12, 24 and 48 hours at 37° C. in 5% CO2, […] of supernatant was transferred to a Greiner plate to which […] of Quanti-blue solution was added. The plate was incubated for 1 hour at 37° C. in 5% CO2 and the production of SEAP (secreted alkaline phosphatase) was detected at 655 nm. All tests were performed in triplicate.

NFkB pathway [3] = assay: NFkB expression in Jurkat cells, luciferase (TGF-β1 mimetic peptides); type: cell-based, human; conditions: for concentrations with statistically significant decrease of NFKB pathway activation vs TNF-α control: peptide pretreatment 1 hour, then TNF-α, tested at 0.1-100 μM
Experimental: Two different cell treatments were performed using Jurkat cells to analyze NFkB expression after 12, 24 and 48 hours. In the first test, Jurkat cells were treated only with peptides (no pathway activating molecule) at different concentrations to analyze the ability of each peptide to induce NFkB expression (Figure not shown). None of the tested concentrations induced any type of pathway activation.
The assay was carried out in such a way that a total of 3×10^5 cells/well ([…]) was pretreated with […] of a composition comprising one of the synthetic peptides in concentrations of 100 μM, 10 μM, 1 μM, and 0.1 μM for 1 hour at 37° C. in 5% CO2, followed by stimulation with TNF-α (200 ng/ml) for 12, 24 and 48 hours. The same stimuli were applied to cells pretreated with TNF-α (200 ng/ml) for 1 hour at 37° C. in 5% CO2 followed by stimulation with peptides at 100 μM, 10 μM, 1 μM and 0.1 μM for 12, 24 and 48 hours. Then, […] of supernatant was transferred to a white plate and Quanti-Luc reagent was used to measure the luciferase product. As a control, the peptides were tested at the same concentrations, without any pathway activating molecule, to investigate whether they could activate the NFkB pathway. TNF-α (200 ng/mL) was used as a positive control and rIL-10 (0.4 ng/mL) as a negative control. […].

[4] = aggregation behavior in solution by Dynamic Light Scattering (DLS); type: physicochemical; conditions: for measured hydrodynamic radius: IL-10 mimetic peptides in solution
NFkB pathway [5] = assay: NFkB expression in Jurkat-Dual reporter cells, luciferase (IL-10 mimetic peptides); type: cell-based; conditions: without activating molecules; 12, 24 and 48 hours; different concentrations
Experimental: (§1) In order to investigate the ability of synthetic peptides with affinity to the Interleukin-10 receptor to interfere in the NFkB, IFN and TLR4 pathways, reporter cell lines were used. To analyze whether the isolated peptides (without activation molecules) could induce any type of activation, the isolated peptides were tested in cell lines during 12, 24 and 48 hours of treatment. […] As an example, FIG. 13A, FIG. 13B, and FIG. 13C show an analysis of NFkB expression after stimulation with the synthesized IL-10 receptor affinity synthetic peptides described herein. Cells were treated for 12, 24 and 48 hours with the synthesized peptides Pep 1-IL10, Pep 2-IL10, Pep 3-IL10 and Pep 4-IL10, at different concentrations, without activating molecules. Luciferase was then measured after 12 hours of treatment (FIG. 13A), 24 hours of treatment (FIG. 13B) and 48 hours of treatment (FIG. 13C). […] TNF-α (200 ng/mL) was used as a positive control.
The assay was then carried out using TNF-α as activation molecule not only in the control, but after a pretreatment with the synthesized peptides Pep 1-IL10, Pep 2-IL10, Pep 3-IL10 and Pep 4-IL10, at different concentrations. All peptides were able to modulate NFKB activation after 12, 24 and 48 hours, with different results depending on the concentrations used. […] In the assays shown by FIGS. 14 A, B and C, analysis of NFkB expression was performed in Jurkat-Dual reporter cells. Cells were treated for 1 hour with peptides and TNF-α (200 ng/ml) added. Luciferase was measured after 12 hours of treatment (FIG. 14A), 24 hours of treatment (FIG. 14B) and 48 hours of treatment (FIG. 14C).
Another assay was then performed in which cells were pretreated with TNF-α and the synthesized peptides Pep 1-IL10, Pep 2-IL10, Pep 3-IL10 and Pep 4-IL10, at different concentrations, were added later. All peptides were able to modulate NFKB activation after 12, 24 and 48 hours, with different results depending on the concentrations used. The most significant results will be described below. […] After 48 hours of treatment, Pep 1-IL-10 at a concentration of 0.001 μM (P<0.05) was the one that obtained a result with the highest statistical significance in the decrease of NFKB signaling (FIG. 15C). In the assays shown by FIGS. 15 A, B and C, analysis of NFkB expression was performed in Jurkat-Dual reporter cells. Cells were treated for 1 hour with TNF-α (200 ng/ml) and peptides were added. Luciferase was measured after 12 hours of treatment (FIG. 15A), 24 hours of treatment (FIG. 15B) and 48 hours of treatment (FIG. 15C). TNF-α (200 ng/mL) was used as a positive control and rlL-10 (recombinant Interleukin-10) (0.4 ng/mL) as a negative control. *P<0.05; **P<0.005; ***P<0.0005.

IFN signaling pathway = IFN signaling pathway in Jurkat-Dual reporter cells, SEAP production; type: cell-based; conditions: after 12, 24 and 48 hours; results depend on concentration
Experimental: as §1
The most significant results will be described below. […] When cells were pretreated with IFN, although peptides at some concentrations indicated results, they were not statistically sufficient. Therefore, we cannot confirm whether they were able to interfere with pathway activation (FIGS. 17 A, B and C) in an equal or better way than the negative control (rIL-10). In the assays shown by FIGS. 16 (A, B and C) and FIGS. 17 (A, B and C), analysis of IFN expression was performed in Jurkat-Dual reporter cells. In the assays shown by FIGS. 16 A, B and C, cells were treated for 1 hour with peptides with further addition of IFN-α (104 EU/ml). Secreted Embryonic Alkaline Phosphatase (SEAP) production was measured after 12 hours of treatment (FIG. 16A), 24 hours of treatment (FIG. 16 B) and 48 hours of treatment (FIG. 16 C). In the assays shown by FIGS. 17A, B and C, cells were treated for 1 hour with IFN-α (104 EU/ml) with further addition of the peptides. SEAP production was measured after (A) 12 hours of treatment (B), 24 hours of treatment and (C) 48 hours of treatment. IFN-α (104 EU/ml) was used as a positive control and rlL-10 (0.4 ng/ml) as a negative control. *P<0.05.

TLR4 pathway = assay: HEK-Blue hTLR4 reporter cells, SEAP production (TGF-β1 mimetic peptides); type: cell-based; conditions: peptide pretreatment 1 hour, then LPS 100 ng/mL; 12 hours
Experimental: Similar to the treatment using Jurkat cells, peptides in compositions with different concentrations were also tested in HEK cells to investigate their ability to interfere with the TLR4 pathway.
To ensure that the peptides could not induce any activation when tested alone (no pathway activation molecule) only the peptides were added into the cell line and SEAP production was measured after 12 hours of treatment (Figure not shown).
The assay was performed using HEK-Blue hTLR4 reporter cells (InvivoGen) to investigate the action of peptides in the TLR4 pathway. A total of 2.3×10^4 cells/well ([…]) was pretreated with […] of composition comprising at least one of the synthetic peptides at concentrations of 100 μM, 10 μM, 1 μM, and 0.1 μM for 1 hour at 37° C. ° C. in 5% CO2 followed by LPS stimulation at 100 ng/mL for 12 hours. The same stimuli were applied to cells pretreated with LPS at 100 ng/ml for 1 hour at 37° C. in 5% CO2, followed by stimuli with peptides at 100 μM, 10 μM, 1 μM and 0.1 μM for 12 hours. Stimuli were added in Quanti-blue medium and SEAP production was measured at 655 nm. As a control, peptides at the same concentrations were tested alone to investigate whether they could activate the TLR4 pathway and LPS was used as a positive control.

Pep 4-TGF-β1: synthetic peptide with affinity to the TGF-β receptor, SEQ ID N 04, with disulfide bridges (HACKLQRSEPCGGGS; disulfide 3-11 (inferred))
recognition of receptor-bound peptide by anti-TGF-β1 antibody compared to recombinant TGF-β1 [1]: recognized as statistically different

Pep 8-TGF-β1: synthetic peptide with affinity to the TGF-β receptor, SEQ ID N 08, free of disulfide bridges (HASTLPSNTHSGGGS)
recognition of receptor-bound peptide by anti-TGF-β1 antibody compared to recombinant TGF-β1 [1]: recognized as statistically different | concentrations with statistically significant activation of the SMAD-dependent pathway (SEAP) [2]: 1 µM | concentrations with significant maintained activation of the SMAD-dependent pathway (SEAP) ([2]; 24 hours): 1 µM | concentrations with significant maintained activation of the SMAD-dependent pathway (SEAP) ([2]; 48 hours): 0.1 μM, 1 μM and 10 μM | concentration with statistically significant reduction of the NFKB pathway (NFkB pathway [3]; cells pretreated with TNF-α, then peptide, 24 hours): 0.1 µM

Pep 4-IL-10: synthetic peptide with affinity to the Interleukin-10 receptor, SEQ ID NO: 12 (HCMTGSRATFPSAPGG)
measured hydrodynamic radius [4]: 0.86 nm | induction of NFkB expression by peptides alone (NFkB pathway [5]): not able to induce any response | modulation of the activation of the IFN signaling pathway (IFN signaling pathway): able to modulate the activation of the IFN signaling pathway

Pep 5-TGF-β1: synthetic peptide with affinity to the TGF-β receptor, SEQ ID N 05, free of disulfide bridges (HASFLPASGLSGGGS)
recognition of receptor-bound peptide by anti-TGF-β1 antibody compared to recombinant TGF-β1 [1]: recognized as statistically different | concentrations with statistically significant activation of the SMAD-dependent pathway (SEAP) [2]: 0.1 μM, 1 μM, 10 μM and 100 μM | concentrations with statistically significant decrease of NFKB pathway activation vs TNF-α control (NFkB pathway [3]; 24 hours): 0.1 μM; 1 μM and 100 μM | concentrations with statistically significant decrease of NFKB pathway activation vs TNF-α control (NFkB pathway [3]; 48 hours): 0.1 μM; 1 μM and 10 μM | concentrations with statistically significant reduction of TLR4 pathway activation (TLR4 pathway): 1 µM and 10 µM

Pep 1-TGF-β1: synthetic peptide with affinity to the TGF-β receptor, SEQ ID N 01, with disulfide bridges (HACFLPASGLCGGGS; disulfide 3-11)
hydrodynamic radius ([4]; TGF-β1 mimetic peptides in solution): 0.58 nm | recognition of receptor-bound peptide by anti-TGF-β1 antibody compared to recombinant TGF-β1 [1]: in the same way that the antibody recognized the TGF-β1 recombinant molecule

Pep 3-IL-10: synthetic peptide with affinity to the Interleukin-10 receptor, SEQ ID NO: 11 (HCFDTQRMEFRMPPGG)
measured hydrodynamic radius [4]: 0.79 nm | induction of NFkB expression by peptides alone (NFkB pathway [5]): not able to induce any response | modulation of the activation of the IFN signaling pathway (IFN signaling pathway): able to modulate the activation of the IFN signaling pathway

Pep 3-TGF-β1: synthetic peptide with affinity to the TGF-β receptor, SEQ ID N 03, free of disulfide bridges (HASESPLKRQSGGGS)
recognition of receptor-bound peptide by anti-TGF-β1 antibody compared to recombinant TGF-β1 [1]: in the same way that the antibody recognized the TGF-β1 recombinant molecule

Pep 6-TGF-β1: synthetic peptide with affinity to the TGF-β receptor, SEQ ID N 06, free of disulfide bridges (HASKLQRSEPSGGGS)
recognition of receptor-bound peptide by anti-TGF-β1 antibody compared to recombinant TGF-β1 [1]: recognized as statistically different | concentrations with statistically significant activation of the SMAD-dependent pathway (SEAP) [2]: 0.1 μM, 10 μM and 100 μM | concentrations with significant maintained activation of the SMAD-dependent pathway (SEAP) ([2]; 24 hours): 100 µM | concentrations with significant maintained activation of the SMAD-dependent pathway (SEAP) ([2]; 48 hours): 0.1 µM and 1 µM | concentrations with statistically significant decrease of NFKB pathway activation vs TNF-α control (NFkB pathway [3]; 24 hours): 0.1 µM | concentrations with statistically significant reduction of TLR4 pathway activation (TLR4 pathway): 1 µM
